{"source": "patent US20240239774A1", "about": "“SOLUBLE ADENYLYL CYCLASE (SAC) INHIBITORS AND USES THEREOF” (Cornell University, priority 2021, published 2024)", "system": "wild type C57B1/6 male mice", "experiment": "Imiquimod-induced type 17 skin inflammation, topical treatment", "type": "in vivo, mouse", "procedure": "Wild type C57B1/6 male mice 8-10 week old were purchased from Jackson labs. A 7 mm diameter circle was shaved and treated with Nair on the flank. Baseline ear thickness was measured. For 5 days, mice received daily treatment of 30 mg of 5% imiquimod cream (Taro) to each ear and to the 7 mm area on the flank. Ear thickness was recorded on days 3 and 5 to ensure peak inflammation had occurred. Mice were then randomized into three cohorts: vehicle, LRE1, and Clobetasol. […] Treatment with imiquimod was continued during this period as above. Ear thickness was recorded every day before the first dose of drug. On day 11, all mice were euthanized. A 7 mm punch biopsy was collected from the flank and both ears were removed. Skin was stored in RNAlater (Sigma) for qPCR or 10% formalin for immunohistochemistry.\nFor tissue, RNA was isolated according to specifications of the RNA easy plus universal mini kit (Qiagen). Tissue was homogenized using stainless steel beads in a bead beater. For frozen cell pellets, RNA was isolated according to specifications of the RNA easy plus mini kit (Qiagen). Samples were homogenized using Qiashredder columns (Qiagen). RNA quality control was performed using a nanodrop spectrophotometer. cDNA was made using the high-capacity rna-to-cdna kit (thermo fischer). The applied biosystems power SYBR green PCR master mix was used for qPCR. 40 cycles with annealing temperatures of 60 degrees celsius and a melting curve were performed using the QuantStudio 6 real-time PCR instrument (thermo fischer). Delta delta CT analysis was performed to determine relative transcription amongst samples normalized to GAPDH."}
{"smiles": "Cc1c(Cc2ccccc2)c(-c2cc(Cl)nc(N)n2)nn1C", "note": "[Example 1, 4-(4-benzyl-1,5-dimethyl-pyrazol-3-yl)-6-chloro-pyrimidin-2-amine]", "values": [{"measurement": "inflammation in the ears measured by ear calipers", "setting": "applied at the same time as imiquimod, N=5", "value": "reduce the inflammation"}, {"measurement": "skin inflammation (ear thickness)", "setting": "imiquimod 6 days, then continued imiquimod plus topical twice a day: LRE1 3%, Example 1 […], Clobetasol 0.05%", "value": "significant reduction in skin inflammation"}, {"measurement": "reduction in inflammation", "setting": "imiquimod for one week, then imiquimod plus compound, over 4 days, N=5", "value": 50, "unit": "%"}]}
